Measurements taken from ChEMBL document CHEMBL1156621, “Synthesis and cellular effects of cycloterpenals: cyclohexadienal-based activators of neurite outgrowth” (2008).
≈ marks a conversion by molar mass, not a printed value.

What was measured:
Format in all cases: functional
[1] = tested on: Bacillus subtilis; assay: Antibacterial activity against Bacillus subtilis after 16 hrs
[2] = tested on: Saccharomyces cerevisiae; assay: Antifungal activity against Saccharomyces cerevisiae after 16 hrs
[3] = tested on: Escherichia coli; assay: Antibacterial activity against Escherichia coli after 16 hrs

Row | SMILES | MIC [1] [µg/mL] | MIC [2] [µg/mL] | MIC [3] [µg/mL]
1 | O=CC1=CC=C(c2ccccc2)CC1c1ccc([N+](=O)[O-])cc1 (stereo unspecified) | > 100 | > 100 | > 100
2 | Cc1ccc(C2=CC=C(C=O)C(c3ccccc3)C2)o1 (stereo unspecified) | > 100 | > 100 | > 100
3 | O=CC1=CC=C(c2ccc(-c3ccccc3)cc2)CC1 | > 100 | > 100 | > 100
4 | O=Cc1ccc(-c2ccccc2)cc1-c1ccc([N+](=O)[O-])cc1 | > 100 | > 100 | > 100
5 | CC1=C(/C=C/C(C)=C/C=C/C2=CC=C(C=O)C(C)(/C=C/C=C(C)/C=C/C3=C(C)CCCC3(C)C)C2)C(C)(C)CCC1 (stereo unspecified) | > 100 | > 100 | > 100
6 | CCCCC[C@H]1C(C)=CC=C(C=O)[C@H]1c1ccc(N(C)C)cc1 | > 100 | > 100 | > 100
7 | CC1=C(/C=C/C(C)=C/C=C/C2=CC=C(C=O)C(c3ccccc3)C2)C(C)(C)CCC1 (stereo unspecified) | > 100 | > 100 | > 100
8 | CC1=C(/C=C/C(C)=C/C=C/C2=CC=C(C=O)C(c3ccc(N(C)C)cc3)C2)C(C)(C)CCC1 (stereo unspecified) | > 100 | > 100 | > 100
9 | Cc1ccc(C2=CC=C(C=O)C(c3ccc(N(C)C)cc3)C2)o1 (stereo unspecified) | > 100 | > 100 | > 100
10 | CC1(c2ccccc2)CC(c2ccccc2)=CC=C1C=O (stereo unspecified) | > 100 | > 100 | > 100
11 | CC(C)=CCC/C(C)=C/C[C@H]1C(C)=CC=C(C=O)[C@H]1c1ccc(N(C)C)cc1 | > 100 | > 100 | > 100
12 | CC1=C(/C=C/C(C)=C/C=C/C2=CC=C(C=O)C(c3ccc([N+](=O)[O-])cc3)C2)C(C)(C)CCC1 (stereo unspecified) | > 100 | > 100 | > 100
13 | CC1C(c2cccs2)=CC=C(C=O)C1c1ccccc1 (stereo unspecified) | > 100 | > 100 | > 100
14 | CC1=C(/C=C/C(C)=C/C=C/C2=CC=C(C=O)CC2)C(C)(C)CCC1 | > 100 | > 100 | > 100
15 | CC1=C(/C=C/C2=CC=C(C=O)C(c3ccc(N(C)C)cc3)C2)C(C)(C)CCC1 (stereo unspecified) | > 100 | > 100 | > 100
16 | O=CC1=CC=C(c2ccc3c(c2)Cc2ccccc2-3)CC1c1ccccc1 (stereo unspecified) | > 100 | > 100 | > 100
17 | O=CC1=CC=C(c2ccccc2)CC1c1ccccc1 (stereo unspecified) | > 100 | > 100 | > 100
18 | CC(C)=CCCc1ccc(C=O)c(-c2ccc([N+](=O)[O-])cc2)c1 | > 100 | > 100 | > 100
19 | CCCCCCC1=CC=C(C=O)C(C)(CCCCCC)C1 (stereo unspecified) | > 100 | > 100 | > 100
20 | CC1(c2cccs2)CC(c2cccs2)=CC=C1C=O (stereo unspecified) | > 100 | > 100 | > 100

Second part, the compound after the results:

Row | MIC [1] [µg/mL] | MIC [2] [µg/mL] | MIC [3] [µg/mL] | SMILES
21 | > 100 | > 100 | > 100 | CC(C)=CCCC1=CC=C(C=O)C(C)C1 (stereo unspecified)
22 | > 100 | > 100 | > 100 | CC(C)=CCCC1=CC=C(C=O)C(C)(c2ccc(C)o2)C1 (stereo unspecified)
23 | > 100 | > 100 | > 100 | Cc1ccc(-c2ccc(C=O)c(-c3ccc([N+](=O)[O-])cc3)c2)o1
24 | > 100 | > 100 | > 100 | CC1CC(c2ccc3ccccc3c2)=CC=C1C=O (stereo unspecified)
25 | > 100 | > 100 | > 100 | O=CC1=CC=C(c2ccc(Cl)s2)CC1c1ccccc1 (stereo unspecified)
26 | 10 (≈ 41.8 µM) | > 100 | > 100 | Cc1ccc(C=O)c(-c2ccc(N(C)C)cc2)c1
27 | > 100 | > 100 | > 100 | CC1(c2ccc(Cl)s2)CC(c2ccc(Cl)s2)=CC=C1C=O (stereo unspecified)
28 | > 100 | > 100 | > 100 | CN(C)c1ccc(C2CC(c3ccc(-c4ccccc4)cc3)=CC=C2C=O)cc1 (stereo unspecified)
29 | > 100 | > 100 | > 100 | CC1=CC=C(C=O)C(c2ccc([N+](=O)[O-])cc2)C1 (stereo unspecified)
30 | > 100 | > 100 | > 100 | CN(C)c1ccc(-c2cc(-c3ccccc3)ccc2C=O)cc1
31 | > 100 | > 100 | > 100 | O=CC1=CC=C(c2cccs2)CC1c1ccc([N+](=O)[O-])cc1 (stereo unspecified)
32 | > 100 | > 100 | > 100 | CC(C)=CCC/C(C)=C/CCC1=CC=C(C=O)C(c2ccccc2)C1 (stereo unspecified)
33 | > 100 | > 100 | > 100 | CC1C(c2cccs2)=CC=C(C=O)C1c1ccc(N(C)C)cc1 (stereo unspecified)
34 | > 100 | > 100 | > 100 | CN(C)c1ccc(C2CC(c3ccc4c(c3)Cc3ccccc3-4)=CC=C2C=O)cc1 (stereo unspecified)
35 | > 100 | > 100 | > 100 | CN(C)c1ccc(-c2cc(-c3ccc4c(c3)Cc3ccccc3-4)ccc2C=O)cc1
36 | > 100 | > 100 | > 100 | CC1=C(/C=C/C2=CC=C(C=O)C(C)C2)C(C)(C)CCC1 (stereo unspecified)
37 | 10 (≈ 32.1 µM) | > 100 | > 100 | CC(C)=CC[C@H]1C(C)=CC=C(C=O)[C@H]1c1ccc([N+](=O)[O-])cc1
